# Test results taken from PMC8037406, “Symbiotic NCR Peptide Fragments Affect the Viability, Morphology and Biofilm Formation of Candida Species” (International Journal of Molecular Sciences, 2021).
# Like-named read-outs stand apart in the source and are kept apart here. Where a SMILES comes first, the peptide text is derived from it.
# Legend:
# [1] = tested on: Candida tropicalis CBS 94; test: microbe, parasite or virus in culture; format: cell-based; conditions: micro-dilution, YNB medium, 4 × 10^4 cell/mL, 48 h, 30 °C, OD 620 nm, MIC = growth inhibition ≥90%, peptides 25 to 1.56 µM, fluconazole 200 to 0.78 µM, three biological repeats in triplicates; further: key: -: no growth inhibition was observed
# Experimental: (§1) The antifungal activity of all the 14 peptides was tested against the following opportunistic human pathogen Candida species and strains: C. albicans strains ATCC 10231, SC 5314 and SZMC 1458, C. auris 0381, C. glabrata CBS 138, C. parapsilosis CBS 604 and C. tropicalis CBS 94.
# (§2) All the Candida strains (Table 4) were grown overnight in YPD medium (1% pepton, 1% dextrose, 0.5% yeast extract) at 30 °C in water bath shaker prior to each experiments. The cells were harvested by centrifugation (5 min, 3000× g) washed twice with sterile distilled water and suspended in 5-fold diluted Difco Yeast Nitrogen Base w/o Amino Acids medium (Becton, Dickinson and Company, Sparks, MD, USA) supplemented with 1% dextrose, referred to as YNB medium in the text. Cells were counted in Bürker chamber and diluted to the proper concentration.
# (§3) The growth inhibition of the peptides listed in Table 1 was tested in 96-well microtiter plates on Candida strains. The minimal inhibitory concentration (MIC) was determined with the micro-dilution method by adding 5 µL serially two-fold-diluted peptide solution to 95 µL of cell suspension (4 × 10^4 cell/mL) in YNB medium. After 48 h of incubation at 30 °C the optical density of the cultures was measured at 620 nm in SPECTROstar Nano plate reader (BMG LabTech, Offenburg, Germany). Minimal inhibitory concentration was defined as growth inhibition ≥90% compared to 100% growth of the untreated control. The experiments were carried out in three biological repeats always in triplicates.
# [2] = tested on: Candida auris 0381; test: microbe, parasite or virus in culture; format: cell-based; conditions: micro-dilution, YNB medium, 4 × 10^4 cell/mL, 48 h, 30 °C, OD 620 nm, MIC = growth inhibition ≥90%, peptides 25 to 1.56 µM, fluconazole 200 to 0.78 µM, three biological repeats in triplicates; further: key: -: no growth inhibition was observed
# Experimental: as §1, §2, §3
# [3] = tested on: Candida albicans SC 5314; test: microbe, parasite or virus in culture; format: cell-based; conditions: Candida albicans, SC5314; micro-dilution, YNB medium, 4 × 10^4 cell/mL, 48 h, 30 °C, OD 620 nm; MIC = growth inhibition ≥90%; peptides 25 to 1.56 µM, fluconazole 200 to 0.78 µM; three biological repeats in triplicates; read-out: Minimal inhibitory concentration, Ca SC 5314; further: key: -: no growth inhibition was observed
# Experimental: as §1, §2, §3
# [4] = tested on: Candida albicans SZMC 1458; test: microbe, parasite or virus in culture; format: cell-based; conditions: Candida albicans, SZMC1458; micro-dilution, YNB medium, 4 × 10^4 cell/mL, 48 h, 30 °C, OD 620 nm; MIC = growth inhibition ≥90%; peptides 25 to 1.56 µM, fluconazole 200 to 0.78 µM; three biological repeats in triplicates; read-out: Minimal inhibitory concentration, Ca SZMC 1458; further: key: -: no growth inhibition was observed
# Experimental: as §1, §2, §3
# [5] = tested on: Candida albicans ATCC 10231; test: microbe, parasite or virus in culture; format: cell-based; conditions: Candida albicans, ATCC10231; micro-dilution, YNB medium, 4 × 10^4 cell/mL, 48 h, 30 °C, OD 620 nm; MIC = growth inhibition ≥90%; peptides 25 to 1.56 µM, fluconazole 200 to 0.78 µM; three biological repeats in triplicates; read-out: Minimal inhibitory concentration, Ca ATCC 10231; further: key: -: no growth inhibition was observed
# Experimental: as §1, §2, §3
# [6] = tested on: Candida parapsilosis CBS 604; test: microbe, parasite or virus in culture; format: cell-based; conditions: micro-dilution, YNB medium, 4 × 10^4 cell/mL, 48 h, 30 °C, OD 620 nm, MIC = growth inhibition ≥90%, peptides 25 to 1.56 µM, fluconazole 200 to 0.78 µM, three biological repeats in triplicates; further: key: -: no growth inhibition was observed
# Experimental: as §1, §2, §3
# [7] = tested on: Candida glabrata CBS 138; test: microbe, parasite or virus in culture; format: cell-based; conditions: Nakaseomyces glabratus, CBS138; micro-dilution, YNB medium, 4 × 10^4 cell/mL, 48 h, 30 °C, OD 620 nm; MIC = growth inhibition ≥90%; peptides 25 to 1.56 µM, fluconazole 200 to 0.78 µM; three biological repeats in triplicates; read-out: Minimal inhibitory concentration, Cg CBS 138; further: key: -: no growth inhibition was observed
# Experimental: as §1, §2, §3
# [8] = tested on: C. auris; conditions: for FIC: FIC index = FICA + FICB; for FICA / concentration of drug A for the indicated action: checkerboard, 72 h, 30 °C; for FICA: OD 620 nm
# Experimental: Amphotericin B, due to its high toxicity was not included in this assay.
# The effects of the different combinations of fluconazole and NCR335C17–33, NCR169C17–38 or NCR169C17–38ox were determined by standard checkerboard titration method. The fluconazole was tested in a concentration range from 6.25 to 75 µM, NCR169C17–38 and NCR169C17–38ox from 0.78 to 12.50 µM, NCR335C17–33 from 1.56 to 25 µM. The initial cell concentration in each well was 4 × 10^4 cell/mL. After the incubation for 72 h at 30 °C, the optical density of the cultures was detected at 620 nm in SPECTROstar Nano plate reader (BMG LabTech, Offenburg, Germany). The inhibitory concentrations were determined for each compound alone and in combinations. The experiments were carried out at least three times. The effect of combinations was evaluated by fractional inhibitory concentration (FIC) index. FIC = FICA + FICB. FICA = (MICA in combination)/(MICA alone); FICB = (MICB in combination)/(MICB alone)
# [9] = tested on: C. tropicalis CBS 94 biofilm; test: Biofilm formation assay, XTT; format: cell-based, Candida tropicalis; conditions: 72 h, 37 °C, 5 % CO2, 1/8AIM medium, p ≤ 0.0001
# [10] = tested on: C. albicans SZMC 1458 biofilm; test: Biofilm formation assay, XTT; format: cell-based, Candida albicans; conditions: 72 h, 37 °C, 5 % CO2, 1/8AIM medium, p ≤ 0.0001
# [11] = tested on: Candida cells; test: Fungicide effect, spotting of treated cells on solid YPD medium; format: cell-based, Candida species; conditions: 1.56–25 µM, 24 h treatment, dilutions spotted on solid YPD medium, 48 h, 30 °C
# Experimental: To determine whether the inhibitory effect of the peptides is generated by fungistatic or fungicide action, the Candida cells were treated with the peptides in the same concentration range (1.56–25 µM) as in the growth inhibition assay. After 24 h 5 µL sample from the untreated control cells and from the peptide treated cells was added to 95 µL water and diluted further 10- and 100-fold. From each dilution, 5 µL was placed on solid medium and the growth of the control and peptide treated cells was compared after 48 h incubation at 30 °C. This assay confirmed that all the effective peptides, NCR335N1–19, NCR335N7–21, NCR335C1–33, NCR335C13–33, NCR335C17–33, NCR169C17–38, NCR169C17–38ox, NCR169C17–38W10,20/A provoked growth inhibition through fungicidal actions (Figure A2). The fungicide concentrations, required for the complete elimination of the Candida cells, were either equal to or twice higher than the minimum inhibitory concentrations presented in Table 2.
# The same initial experimental setting was used to determine the fungicide effect of the peptides. Five µL samples were taken from the cultures after 24 h and were added to 95 µL sterile distilled water, and diluted to 10- and 100-fold (indicated as 10^4, 10^3 and 10^2 based on the cell number of the control culture in Figure A2). Five µL from each dilution were placed on solid YPD medium and the growth of the strains was detected after 48 h incubation at 30 °C.
# [12] = tested on: C. albicans SC 5314 biofilm; test: Biofilm formation assay, XTT; format: cell-based, Candida albicans; conditions: 72 h, 37 °C, 5 % CO2, 1/8AIM medium, p ≤ 0.0001
# [13] = tested on: C. albicans ATCC 10231 biofilm; test: Biofilm formation assay, XTT; format: cell-based, Candida albicans; conditions: 72 h, 37 °C, 5 % CO2, 1/8AIM medium, p ≤ 0.0001
# [14] = fluconazole + NCR169C17–38, C. auris
# [15] = fluconazole + NCR169C17–38ox, C. auris
# [16] = C. auris, drug A fluconazole + drug B NCR169C17–38
# [17] = C. auris, drug A fluconazole + drug B NCR335C17–33
smiles,measurement,setting,value
"OC(Cn1cncn1)(Cn1cncn1)c1ccc(F)cc1F [Fluconazole, fluconazole, reference compound]",MIC,"[1]; Candida tropicalis, CBS94, read-out: Minimal inhibitory concentration, Ct CBS 94",100 µM
same,MIC,"[2]; Candidozyma auris, 0381, read-out: Minimal inhibitory concentration, Cau 0381",25 µM
same,MIC,[3],12.5 µM
same,MIC,[4],1.56 µM
same,MIC,[5],200 µM
same,MIC,"[6]; Lodderomyces parapsilosis, CBS604, read-out: Minimal inhibitory concentration, Cp CBS 604",6.25 µM
same,MIC,[7],200 µM
same,FIC,[8]; [14],0.625
same,FIC,[8]; [15],0.5
same,FIC,"[8]; fluconazole + NCR335C17–33, C. auris, * fictitious value, could be lower",≤ 1.125 *
same,FICA,[8]; [16],0.5
same,FICA,[8]; [17],1
same,concentration of drug A for the indicated action,[8]; [16],12.50 µM
same,concentration of drug A for the indicated action,"[8]; C. auris, drug A fluconazole + drug B NCR169C17–38ox",6.25 µM
same,concentration of drug A for the indicated action,[8]; [17],25 µM
same,Action,[8]; [14],Additive
same,Action,[8]; [15],Synergism
same,reduction of MIC in the synergistic combination,"[8]; fluconazole + NCR169C17–38ox, C. auris, compared with single use",4 ×
same,Action,"[8]; fluconazole + NCR335C17–33, C. auris",Indifferent
"CC[C@H](C)[C@H](NC(=O)[C@H](CCCCN)NC(=O)[C@H](Cc1ccccc1)NC(=O)[C@H](CC(C)C)NC(=O)[C@@H]1CCCN1C(=O)[C@H](CCCCN)NC(=O)[C@H](CCCCN)NC(=O)[C@H](CO)NC(=O)[C@@H](N)CCCCN)C(=O)N[C@@H](C)C(=O)N[C@@H](CCCCN)C(=O)N[C@@H](CS)C(=O)N[C@H](C(=O)N[C@@H](CCC(=O)O)C(=O)N[C@@H](CC(N)=O)C(=O)N[C@H](C(=O)N[C@@H](CS)C(=O)N[C@H](C(=O)N[C@@H](CC(C)C)C(=O)N[C@@H](C)C(=O)N[C@@H](Cc1ccc(O)cc1)C(=O)N[C@@H](CCCCN)C(N)=O)C(C)C)C(C)C)C(C)C [NCR169C17–38W10,20/A] (H-KSKKPLFKIAKCVENVCVLAYK-NH2; N-terminus assumed)","concentration significantly inhibiting biofilm formation, relative to MIC",[9],one-fourth of the MIC
same,"concentration significantly inhibiting biofilm formation, relative to MIC",[10],MIC
same,"Minimal inhibitory concentration, Cau 0381",[2],-
same,"Minimal inhibitory concentration, Cp CBS 604",[6],-
same,growth inhibition by fungistatic or fungicide action,[11],fungicidal
same,"concentration significantly inhibiting biofilm formation, relative to MIC",[12],half MIC
same,"concentration significantly inhibiting biofilm formation, relative to MIC",[13],half MIC
CC[C@H](C)[C@H](NC(=O)[C@@H]1CCCN1C(=O)[C@@H](NC(=O)[C@H](CS)NC(=O)[C@H](Cc1ccc(O)cc1)NC(=O)[C@H](CO)NC(=O)[C@H](CCCCN)NC(=O)[C@H](CCCNC(=N)N)NC(=O)[C@H](CS)NC(=O)[C@H](CCCNC(=N)N)NC(=O)[C@@H](NC(=O)[C@H](CC(N)=O)NC(=O)[C@H](C)NC(=O)[C@H](CCCNC(=N)N)NC(=O)[C@H](CCCNC(=N)N)NC(=O)[C@H](CC(C)C)NC(=O)[C@H](CCCCN)NC(=O)[C@@H]1CCCN1C(=O)[C@H](CS)NC(=O)[C@H](CC(=O)O)NC(=O)[C@H](CCCCN)NC(=O)[C@H](CC(N)=O)NC(=O)[C@@H](NC(=O)[C@H](CCCCN)NC(=O)[C@H](CS)NC(=O)[C@H](CC(=O)O)NC(=O)[C@H](CO)NC(=O)[C@H](CC(C)C)NC(=O)[C@@H](NC(=O)[C@H](CC(C)C)NC(=O)[C@H](CO)NC(=O)[C@H](Cc1ccccc1)NC(=O)[C@@H](N)Cc1c[nH]cn1)[C@@H](C)CC)[C@@H](C)O)C(C)C)C(C)C)C(N)=O [NCR335C1–33] (H-HFSLILSDCKTNKDCPKLRRANVRCRKSYCVPI-NH2; N-terminus assumed),"Minimal inhibitory concentration, Ct CBS 94",[1],-
same,"Minimal inhibitory concentration, Cau 0381",[2],-
same,growth inhibition by fungistatic or fungicide action,[11],fungicidal
